Test results as given in ChEMBL document CHEMBL1153768, “New potential AChE inhibitor candidates” (Eur J Med Chem, 2009).

How the values were obtained:
[1] = biological target: Acetylcholinesterase (Electrophorus electricus) (UniProt O42275); assay: (§1) Inhibition of Electrophorus electricus AChE
Acetylcholinesterase = Acetylcholinesterase (Electrophorus electricus, UniProt O42275); assay: as §1
[2] = biological target: Acetylcholinesterase (Electrophorus electricus) (UniProt O42275); assay: Inhibition of Electrophorus electricus AChE at 100 uM

Sequence of Acetylcholinesterase (Electrophorus electricus) (O42275 24-633 limits assumed): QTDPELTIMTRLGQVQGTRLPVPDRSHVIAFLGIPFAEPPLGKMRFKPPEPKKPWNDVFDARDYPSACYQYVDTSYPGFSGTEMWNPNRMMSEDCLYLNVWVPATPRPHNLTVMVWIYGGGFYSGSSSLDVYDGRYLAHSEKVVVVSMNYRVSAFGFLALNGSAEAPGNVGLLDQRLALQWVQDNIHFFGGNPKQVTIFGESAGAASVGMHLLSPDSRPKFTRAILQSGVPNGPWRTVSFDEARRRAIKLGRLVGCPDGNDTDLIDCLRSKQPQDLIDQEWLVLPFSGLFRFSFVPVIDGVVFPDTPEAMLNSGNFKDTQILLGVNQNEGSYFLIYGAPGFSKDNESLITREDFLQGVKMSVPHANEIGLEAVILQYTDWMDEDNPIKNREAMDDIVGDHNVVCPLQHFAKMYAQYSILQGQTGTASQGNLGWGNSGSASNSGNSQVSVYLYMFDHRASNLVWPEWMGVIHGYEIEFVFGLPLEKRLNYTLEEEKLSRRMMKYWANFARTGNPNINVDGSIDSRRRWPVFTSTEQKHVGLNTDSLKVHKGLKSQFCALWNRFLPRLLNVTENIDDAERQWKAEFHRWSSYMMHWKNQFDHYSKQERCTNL
Sequence of Acetylcholinesterase (O42275 whole entry): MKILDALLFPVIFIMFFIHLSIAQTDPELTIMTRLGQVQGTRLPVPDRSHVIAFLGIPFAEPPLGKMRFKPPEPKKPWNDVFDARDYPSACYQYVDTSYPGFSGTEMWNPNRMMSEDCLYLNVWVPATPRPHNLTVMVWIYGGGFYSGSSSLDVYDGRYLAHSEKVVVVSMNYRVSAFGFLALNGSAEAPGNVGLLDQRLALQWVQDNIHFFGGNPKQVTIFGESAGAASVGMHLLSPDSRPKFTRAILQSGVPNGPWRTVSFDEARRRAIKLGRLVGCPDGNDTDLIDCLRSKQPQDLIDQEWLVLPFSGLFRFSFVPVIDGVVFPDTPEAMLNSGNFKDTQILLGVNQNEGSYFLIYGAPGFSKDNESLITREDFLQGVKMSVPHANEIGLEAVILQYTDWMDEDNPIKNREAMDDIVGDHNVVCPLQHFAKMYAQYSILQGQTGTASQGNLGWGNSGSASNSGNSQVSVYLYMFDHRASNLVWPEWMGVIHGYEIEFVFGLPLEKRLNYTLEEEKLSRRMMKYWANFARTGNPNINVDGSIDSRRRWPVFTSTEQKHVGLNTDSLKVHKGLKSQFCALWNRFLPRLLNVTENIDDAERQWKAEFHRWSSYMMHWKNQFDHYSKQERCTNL

| SMILES | inhibition [1] | IC50 (Acetylcholinesterase) | inhibition [2] |
| --- | --- | --- | --- |
| CCCCCCCCCCCCCCC(c1cccc(OC(=O)N(C)C)c1)N(C)C (stereo not drawn) | Dose-dependent effect | 50 µM | – |
| CCCCCCCCCCCCCCC(c1cccc(OC(=O)N(C)C)c1)N1CCCC1 (stereo not drawn) | Dose-dependent effect | 84.3 µM | – |
| CCCCCCCCCCCCCCC(c1cccc(OC(=O)N(C)C)c1)N(C)Cc1ccccc1 (stereo not drawn) | – | – | 25% |
| CCCCCCCCCCCCCCC(c1cccc(OC(=O)N(C)C)c1)N1CCCCC1 (stereo not drawn) | – | – | 25% |
| CCCCCCCCCCCCCCC(c1cccc(OC(=O)N(C)C)c1)N(CC)CC (stereo not drawn) | Dose-dependent effect | 251 µM | – |
